This is an account of results in patent publication US12291502B2, “Topoisomerase II-alpha inhibitors and methods of treating cancer using the same” (The Regents of the University of Colorado, priority 2019, dated 2025).

Like-named read-outs stand apart in the source and are kept apart here.

For one assay, the target named is T1, Human TOP2A (Homo sapiens, UniProt P11388).
T1 construct: purchased TopoGEN (Buena Vista, CO)
Kind of assay: TOP2A DNA decatenation assay (kDNA, agarose gel). Type of assay: biochemical. Particulars: for TOP2A inhibition, result in words: decatenation screen at 30 μM. The protocol:
Inhibition of TOP2A activity. Human TOP2A, kDNA, and assay buffers were obtained from TopoGEN (Buena Vista, CO). The synthesized compounds were screened for their TOP2A inhibitory activity by the intensity of DNA decatenation bands on a DNA gel when compared to the vehicle. Compounds were initially incubated with TOP2A (3 U/reaction) for 20 min at a 30 μM and 1.2% DMSO concentration in a 37° C. incubator without CO2.
The decatenation reaction was initiated immediately after by adding 2 mM ATP and 35 ng/reaction of kDNA, then incubated for 1 hour in a 37° C. water bath. The samples were loaded into a 0.8% agarose gel in 1× Tris-Borate-EDTA (TBE) at a 0.2 μg/mL ethidium bromide concentration and allowed to run in an electrophoretic chamber for 1 hour at 100V. Compounds with the highest inhibitory activity were selected for 2-fold serial dilution dose-response assays (58.6 nM-30 μM). The dose-response assays followed the same protocol with the exception of 4 U/reaction of TOP2A.
Inhibition studies of TOP2A and observed structure activity relationships (SAR). DNA catenation/decatenation or linking/unlinking of DNA is one of the main TOP2A functions essential for regulating DNA topology, and this is ATP dependent. […] Thus, as a starting point, the synthesized analogs were screened against TOP2A-dependent decatenation using 30 μM fixed concentrations, and the DNA from reactions were resolved on 0.8% agarose gels containing ethidium bromide.
Moreover, these studies provided interesting SAR, which shed light on the potential lead drug target binding interactions and affinity, biological activity, and future drug design optimization with this unique class of TOP2A inhibitors.
(§1) TOP2A decatenation assay. Human TOP2A, kDNA, and assay buffers were obtained from TopoGEN (Buena Vista, CO). The synthesized compounds were screened for their TOP2A inhibitory activity by the intensity of DNA decatenation bands on a DNA gel when compared to the vehicle. Compounds were initially incubated with TOP2A (3 U/reaction) for 20 min at a 30 μM and 1.2% DMSO concentration in a 37° C. incubator without CO2. The decatenation reaction was initiated immediately after by adding 2 mM ATP and 35 ng/reaction of kDNA, then incubated for 1 h in a 37° C. water bath. The samples were loaded into a 0.8% agarose gel in 1× Tris-Borate-EDTA (TBE) at a 0.2 μg/mL ethidium bromide concentration and allowed to run in an electrophoretic chamber for 1 h at 100V. Compounds with the highest inhibitory activity were selected for 2-fold serial dilution dose-response assays (58.6 nM-30 μM). The dose-response assays followed the same protocol with the exception of 4 U/reaction of TOP2A,
as §1, with “assays (53.6” for “assays (58.6”, “of TOP2A.” for “of TOP2A,”

Assay [1] deals with E-cadherin promoter activity (EcadPro-RFP) in SW620 cells. In words: EcadPro-RFP (mCherry) EMT reporter assay. The format is cell-based. Particulars: Homo sapiens, SW-620; Table 3; SW620 Cells; read-out: E-cadherin Up-regulation EC50.
Text: (§2) VimPro-GFP and EcadPro-RFP reporter assays. […] 35(38): p. 4990-9.]
as §2

The subject of assay [2] is vimentin promoter activity (VimPro-GFP) in SW620 cells. Kind of assay: VimPro-GFP EMT reporter assay. Conditions: Homo sapiens, SW-620, read-out: Vimentin Down-regulation EC50 (μM).
Protocol: VimPro-GFP and EcadPro-mCherry reporter assays. VimPiro-GFP: SW620 cells were first transduced with NucLight Red virus (Essen BioSciences) and selected with Zeocin at 200 μg/mL, and then transduced with pCDH-VimPro-GFP-EF1-puro virus and selected with puromycin at 4 μg/mL. The dual fluorescently labeled cells were plated and treated in 3D tumor organoid as described. Tumor organoid images were recorded every 2 hours over a 72 hours period using an incucyte ZOOM content imaging system (Essen BioSciences) or PerkinElmer Phenix imager (PerkinElmer).
Analogs were also assessed for their ability to modulate or reverse EMT using VimPro-GFP and EcadPro-RFP SW620 reporter cells cultured as tumor organoids, determining EC50 dose responses over 72 hours (Table 2).
VimPro-GFP and EcadPro-RFP reporter assays. Stable VimPro-GFP or EcadPro-RFP SW620 reporter cells were generated using pCDH-VimPro-GFP-EF1-puro virus or pCDH-EcadPro-mCherry-EF1-puro virus as previously reported. […] Transduced cells were selected with puromycin at 2 μg/mL. The stable fluorescent labeled reporter cells were then used to generate tumor organoids as described. Tumor organoids were then treated with TOP2A inhibitors at 10 μM for an additional 72 h. Following treatment, tumor organoids were stained with 16 μM of Hoechst 33342 for 1 h, which functions as a nuclear stain for imaging segmentation. Images were taken with a 5× air objective. Z stacks were set at 20 μm apart for a total of 7 layers. Imaging analysis was performed using an Opera Phenix high content screening (HCS) system and Harmony high-content imaging and analysis software interface (PerkinElmer, MA). Nuclei were identified with Hoechst 33342 stain within each layer, and cells were found with either GFP or mCherry channel. The intensities of each fluorescence channel within the cells were calculated and thresholds were set based on the background intensities. Percentages of GFP or mCherry positive cells were calculated and normalized to the DMSO treated group.
VimPro-GFP and EcadPro-RFP reporter assays. Stable VimPro-GFP or EcadPro-RFP SW620 reporter cells were generated using pCDH-VimPro-GFP-EF1-puro virus or pCDH-EcadPro-mCherry-EF1-puro virus as previously reported. […] Transduced cells were selected with puromycin at 2 μg/mL. The stable fluorescent labeled reporter cells were then used to generate tumor organoids as described. Tumor organoids were then treated with TOP2A inhibitors at 10 μM for an additional 72 h. Following treatment, tumor organoids were stained with 16 μM of Hoechst 33342 for 1 h, which functions as a nuclear stain for imaging segmentation. Images were taken with a 5× air objective.
Setting [3] is: Table 3, 30 μM, read-out: % TOP2A Decatenation inhibition (30 μM).
Setting [4] is: Table 1, decatenation, 30 μM fixed concentration.
Where [5] appears, read: Table 3, read-out: TOP2A Inhibition IC50.
[6] abbreviates: 1 h, Table 1, decatenation, 30 μM fixed concentration, read-out: % Inhibition TOP2A (30 μM).
Setting [7] is: Table 1, decatenation dose response, read-out: % Inhibition TOP2A (IC50 Values).

T1 sequence (P11388 whole entry): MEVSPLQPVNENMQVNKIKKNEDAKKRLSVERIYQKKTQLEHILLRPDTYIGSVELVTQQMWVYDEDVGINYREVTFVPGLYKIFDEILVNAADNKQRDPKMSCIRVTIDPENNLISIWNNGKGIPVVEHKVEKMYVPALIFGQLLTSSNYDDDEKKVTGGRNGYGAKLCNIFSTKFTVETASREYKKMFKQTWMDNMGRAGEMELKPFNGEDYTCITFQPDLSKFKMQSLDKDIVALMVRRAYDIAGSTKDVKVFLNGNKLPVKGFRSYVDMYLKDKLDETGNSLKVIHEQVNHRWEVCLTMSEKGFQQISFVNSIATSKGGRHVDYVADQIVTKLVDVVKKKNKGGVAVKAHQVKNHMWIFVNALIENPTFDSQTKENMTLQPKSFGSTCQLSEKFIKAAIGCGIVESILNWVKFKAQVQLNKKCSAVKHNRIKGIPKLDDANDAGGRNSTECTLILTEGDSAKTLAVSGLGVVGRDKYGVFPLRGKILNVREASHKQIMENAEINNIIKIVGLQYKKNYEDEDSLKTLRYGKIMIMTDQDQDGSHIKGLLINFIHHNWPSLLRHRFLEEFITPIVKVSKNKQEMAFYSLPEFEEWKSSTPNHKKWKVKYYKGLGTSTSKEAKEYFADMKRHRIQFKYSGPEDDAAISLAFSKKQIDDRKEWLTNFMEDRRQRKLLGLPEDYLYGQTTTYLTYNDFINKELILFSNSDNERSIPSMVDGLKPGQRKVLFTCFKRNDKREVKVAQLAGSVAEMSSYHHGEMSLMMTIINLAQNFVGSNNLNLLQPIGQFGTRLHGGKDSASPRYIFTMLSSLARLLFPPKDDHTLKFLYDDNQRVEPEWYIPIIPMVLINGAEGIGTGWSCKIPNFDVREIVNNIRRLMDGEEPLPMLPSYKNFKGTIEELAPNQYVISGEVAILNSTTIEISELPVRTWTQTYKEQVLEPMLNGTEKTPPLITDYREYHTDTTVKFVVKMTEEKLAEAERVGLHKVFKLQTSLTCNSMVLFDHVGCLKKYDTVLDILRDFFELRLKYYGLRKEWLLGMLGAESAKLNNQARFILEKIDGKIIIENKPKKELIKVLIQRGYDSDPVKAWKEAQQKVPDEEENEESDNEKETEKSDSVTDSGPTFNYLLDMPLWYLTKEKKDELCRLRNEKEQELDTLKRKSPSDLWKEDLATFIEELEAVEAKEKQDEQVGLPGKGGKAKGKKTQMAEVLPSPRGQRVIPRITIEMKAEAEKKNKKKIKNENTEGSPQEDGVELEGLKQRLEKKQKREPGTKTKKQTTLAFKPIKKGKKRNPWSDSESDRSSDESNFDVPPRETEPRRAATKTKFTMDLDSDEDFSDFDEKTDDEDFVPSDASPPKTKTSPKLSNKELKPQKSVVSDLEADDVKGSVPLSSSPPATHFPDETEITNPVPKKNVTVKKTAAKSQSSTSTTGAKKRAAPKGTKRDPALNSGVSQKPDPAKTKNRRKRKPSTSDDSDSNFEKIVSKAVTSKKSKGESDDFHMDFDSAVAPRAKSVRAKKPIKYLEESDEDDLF

In the case of `CC(=O)Nc1ccc2c(Nc3ccc4[nH]ccc4c3)ccnc2c1O` [AA-29-136], the inhibition at 30 µM on Human TOP2A (setting [3]) is 90%. Moreover, the EC50 in assay [1] worked out at 8.4 µM; in assay [2], 4.1 µM.

As to `COc1ccc(F)cc1-c1ccnc2c(OC)c(NC(C)=O)ccc12` [Analog 6], the “% Inhibition TOP2A (30 μM)” value at Human TOP2A (setting [4]) is 0.0%.

With `CC(=O)Nc1ccc2c(Nc3cccc(F)c3)ccnc2c1O` [AA-29-146], the inhibition at 30 µM on Human TOP2A (setting [3]) is 100%. For the same molecule, the EC50 in assay [1] was 9.7 µM; in assay [2], 7.4 µM.

In the case of `CC(=O)Nc1ccc2c(Nc3ccc4[nH]c(C)cc4c3)ccnc2c1O` [AA-29-155], the EC50 came out at 128 µM in assay [1] and 9.56 µM in assay [2].

In the case of `CC(C)(C)C(=O)Nc1ccc2c(-c3cc(F)ccc3O)ccnc2c1O` [Analog 40], the “% Inhibition TOP2A (30 μM)” value on Human TOP2A (setting [4]) was determined as 0.0%.

As to `CC(=O)Nc1ccc2c(NC3CCCCCC3)ccnc2c1O` [AA-34-130], the inhibition at 30 µM at Human TOP2A (setting [3]) worked out at 100%. Also, the IC50 at Human TOP2A (setting [5]) stood at 1.53 µM. The EC50 came to 36.5 µM in assay [1] and 59 µM in assay [2].

In the case of `CC(=O)Nc1ccc2c(-c3ccccc3)ccnc2c1O` [Analog 28], at Human TOP2A (setting [4]), the “% Inhibition TOP2A (30 μM)” value amounted to 25.0%.

In the case of `CC(=O)Nc1ccc2c(NC3CCCCC3)ccnc2c1O` [AA-29-216], the inhibition at 30 µM on Human TOP2A (setting [3]) turned out to be 100%. Besides, the IC50 on Human TOP2A (setting [5]) is 0.29 µM. Also, the EC50 turned out to be 17.8 µM in assay [1] and 20.6 µM in assay [2].

For `O=C(CN1CCOCC1)Nc1ccc2c(-c3cc4ccccc4o3)ccnc2c1O` [Analog 60], the inhibition at 30 µM on Human TOP2A (setting [6]) was determined as 100%. For the same molecule, the IC50 at Human TOP2A (setting [7]) turned out to be 5 µM.

For `O=C(CCN1CCOCC1)Nc1ccc2c(NC3CCCCC3)ccnc2c1O` [AA-34-180], the inhibition at 30 µM at Human TOP2A (setting [3]) was determined as 0%. The EC50 in assay [1] worked out at 65.5 µM; in assay [2] it was 13 µM.

On to `CC(=O)Nc1ccccc1-c1ccnc2c(O)c(NC(C)=O)ccc12` [Analog 34], for which the “% Inhibition TOP2A (30 μM)” value on Human TOP2A (setting [4]) was found to be 1.0%. Also, the “TOP2A inhibition, result in words” value on Human TOP2A is listed as “significant loss of activity”.

`CC(=O)Nc1ccc2c(Nc3cccc4[nH]ccc34)ccnc2c1O` [AA-29-147]: the figures for the EC50 in assay [1] and in assay [2] were 146 µM and 14.8 µM, respectively.

Consider `O=C(CN1CCOCC1)Nc1ccc2c(NC3CCCCC3)ccnc2c1O` [AA-34-171], for which, on Human TOP2A (setting [3]), the inhibition at 30 µM was determined as 62%. The EC50 in assay [1] turned out to be 48.2 µM; in assay [2], 17.5 µM.

Regarding `CC(=O)Nc1ccc2c(Nc3ccccc3)ccnc2c1O` [AA-29-148], the inhibition at 30 µM on Human TOP2A (setting [3]) is 100%. Also, the EC50 was found to be 7.6 µM in assay [1] and 25.9 µM in assay [2].

For `CC(=O)Nc1ccc2c(-c3ccsc3)ccnc2c1O` [Analog 58], the inhibition at 30 µM on Human TOP2A (setting [6]) is 92%. Besides, on Human TOP2A (setting [7]), the IC50 was found to be 5 µM. For the same molecule, the “TOP2A inhibition, result in words” value at Human TOP2A is on record as “improves activity compared to the 3-furanyl analog 56”.

Turning to `CC(=O)Nc1ccc2c(-c3ccc(C(F)(F)F)cc3)ccnc2c1O` [Analog 32], the inhibition at 30 µM on Human TOP2A (setting [6]) was 97%. The IC50 on Human TOP2A (setting [7]) is 0.7 µM. Further, the “TOP2A inhibition, result in words” value on Human TOP2A was “excellent inhibitory activity”.

Take `CC(=O)Nc1ccc2c(-c3cccc(F)c3)ccnc2c1O` [Analog 29]: the inhibition at 30 µM at Human TOP2A (setting [6]) was 100%. For the same molecule, at Human TOP2A (setting [7]), the IC50 was found to be 7.8 µM. Further, the “TOP2A inhibition, result in words” value on Human TOP2A is reported as “potent inhibition of TOP2A activity”.

`CC(=O)Nc1ccc2c(-c3ccco3)ccnc2c1O` [Analog 55]: the “% Inhibition TOP2A (30 μM)” value on Human TOP2A (setting [4]) is given as 0.0%. Also, the “TOP2A inhibition, result in words” value on Human TOP2A is on record as “significant loss of activity”.

As for `CC(=O)Nc1ccc2c(-c3cc(C(F)(F)F)ccc3O)ccnc2c1O` [Analog 37], the inhibition at 30 µM on Human TOP2A (setting [6]) amounted to 100%. Moreover, at Human TOP2A (setting [7]), the IC50 turned out to be 9 µM. Besides, on Human TOP2A, the “TOP2A inhibition, result in words” value was “excellent inhibitory activity”.

`CC(=O)Nc1ccc2c(-c3cc4ccccc4s3)ccnc2c1O` [Analog 54]: at Human TOP2A (setting [4]), the “% Inhibition TOP2A (30 μM)” value was 0.0%. Besides, the “TOP2A inhibition, result in words” value on Human TOP2A is “inhibition was lost”.

Turning to `CC(=O)Nc1ccc2c(-c3cccc(C(F)(F)F)c3)ccnc2c1O` [Analog 31], at Human TOP2A (setting [7]), the IC50 worked out at 3.4 µM. Besides, the “% Inhibition TOP2A (30 μM)” value at Human TOP2A (setting [4]) was 97.0%. On Human TOP2A, the “TOP2A inhibition, result in words” value was “excellent inhibitory activity”.

Consider `CC(=O)Nc1ccc2c(NC3CCCC3)ccnc2c1O` [AA-34-131], for which, on Human TOP2A (setting [3]), the inhibition at 30 µM is 92%. The 50% inhibitory concentration (IC50) at Human TOP2A (setting [5]) stood at 2.16 µM. For the same molecule, the figures for the EC50 in assay [1] and in assay [2] were 21.3 µM and 23 µM, respectively.

Take `CC(=O)Nc1ccc2c(Nc3ccc(O)cc3F)ccnc2c1O` [AA-29-172]: the EC50 turned out to be 58.5 µM in assay [1] and 45.9 µM in assay [2].

Regarding `CC(=O)Nc1ccc2c(Nc3ccc(C(F)(F)F)cc3)ccnc2c1O` [AA-29-158], the figures for the EC50 in assay [1] and in assay [2] were 65.1 µM and 1.36 µM, respectively.

`CC(=O)Nc1ccc2c(-c3cncnc3)ccnc2c1O` [Analog 59]: on Human TOP2A (setting [4]), the “% Inhibition TOP2A (30 μM)” value came out at 0.0%.

On to `CC(=O)Nc1ccc2c(Nc3cccc(C(F)(F)F)c3)ccnc2c1O` [AA-29-157], for which the EC50 was 180 µM in assay [1] and 29.9 µM in assay [2].

Turning to `CC(=O)Nc1ccc2c(NC3CCC3)ccnc2c1O` [AA-34-132], the inhibition at 30 µM on Human TOP2A (setting [3]) was found to be 94%. At Human TOP2A (setting [5]), the half-maximal inhibitory concentration (IC50) stood at 6.56 µM. In addition, the EC50 in assay [1] is 100 µM; in assay [2], 27.7 µM.

For `CC(=O)Nc1ccccc1-c1ccnc2c(O)c(NC(=O)CCN3CCOCC3)ccc12` [Analog 43], the “% Inhibition TOP2A (30 μM)” value at Human TOP2A (setting [4]) was found to be 1.0%.

In the case of `CC(=O)Nc1ccc2c(-c3cc(Cl)ccc3O)ccnc2c1O` [Analog 38], the “% Inhibition TOP2A (30 μM)” value on Human TOP2A (setting [4]) was 0.0%. Also, the “TOP2A inhibition, result in words” value on Human TOP2A was “no activity was observed”.

Turning to `CC(=O)Nc1ccc2c(Nc3cc(O)ccc3F)ccnc2c1O` [AA-29-171], the results for the EC50 in assay [1] and in assay [2] were 139 µM and 26.6 µM, respectively.

On to `CC(=O)Nc1ccc2c(-c3cccc(O)c3)ccnc2c1O` [Analog 33], for which the “% Inhibition TOP2A (30 μM)” value at Human TOP2A (setting [4]) was determined as 0.0%.

Take `CC(=O)Nc1cccc(-c2ccnc3c(O)c(NC(C)=O)ccc23)c1` [Analog 36]: the “% Inhibition TOP2A (30 μM)” value on Human TOP2A (setting [4]) was 3.0%. The “TOP2A inhibition, result in words” value on Human TOP2A is recorded as “significant loss of activity”.

`CC(=O)Nc1ccc2c(-c3ccc(F)cc3)ccnc2c1O` [Analog 30]: at Human TOP2A (setting [4]), the “% Inhibition TOP2A (30 μM)” value stood at 1.0%. The “TOP2A inhibition, result in words” value at Human TOP2A was “the activity is lost”.

In general, inhibition refers to the share of the control response that was lost under treatment. What is called EC50 is the concentration giving half of the maximal effect. A word on the IC50: it is the point on the concentration scale where inhibition reaches its midpoint.
